# Data from patent US20260285853A1, “COMPOUNDS AND METHODS FOR MODULATING SPLICING” (REMIX THERAPEUTICS INC., priority 2023, published 2026).
# Assays:
# Assay type in all cases: cell-based
# [1] = system: SH-SY5Y (human neuroblastoma) cells; experiment: Cell viability, Cell Titer Glo 2.0 assay; details: read-out: Viability SHSY5Y.3 GI50
# Summary of the method: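 Steps: serial DMSO dilution of compound, 1:100 dilution into medium, addition to cells (0.1% DMSO final). Incubate 72 h at 37 °C, 5% CO2. Assay with CellTiter-Glo 2.0 reagent.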
# MYB mRNA [2] = experiment: Gene panel canonical junction qPCR assay, decrease in CJ mRNA, Table 3; details: decrease in canonical junction (CJ) mRNA, gene panel qPCR, Table 3
# Summary of the method: (§1)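 IC50 is the concentration giving 50% response in decrease of the canonical junction transcript, fitted with a 4-parameter logistic equation. Transcripts were quantified by RT-qPCR in A673 or K562 cells after 24 h exposure to compounds dosed up to 10 uM in 3-fold steps.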
# HTT mRNA [3] = experiment: as above; details: decrease in canonical junction (CJ) mRNA, gene panel qPCR, Table 3
# Summary of the method: as §1
# MYB mRNA [4] = experiment: Splicing RT-qPCR assay (THP), Table 2A; details: Table 2A (THP); for AC50: AJ mRNA increase, read-out: MYB AJ (increase in alternative junction mRNA, AC50); for IC50: CJ mRNA decrease, read-out: MYB CJ (decrease in canonical junction mRNA, IC50)
# HTT mRNA [5] = experiment: Splicing RT-qPCR assay (THP), Table 2A; details: Table 2A (THP); for AC50: AJ mRNA increase, read-out: HTT AJ (increase in alternative junction mRNA, AC50); for IC50: CJ mRNA decrease, read-out: HTT CJ (decrease in canonical junction mRNA, IC50)
SMILES,GI50 [1] [nM],IC50 (MYB mRNA [2]) [nM],IC50 (HTT mRNA [3]) [nM],IC50 (MYB mRNA [4]) [nM],IC50 (HTT mRNA [5]) [nM],AC50 (MYB mRNA [4]) [nM],AC50 (HTT mRNA [5]) [nM]
"Cn1cc2c(N3CCC(NC4CC4)CC3)cc(F)c(C(=O)Nc3ccnnc3O)c2n1 [Compound 420, 4-[4-(cyclopropylamino)-1-piperidyl]-6-fluoro-N-(3-hydroxypyridazin-4-yl)-2-methyl-indazole-7-carboxamide]",> 10000,> 10000,> 10000,> 10000,> 10000,> 10000,> 10000
"COc1cnncc1NC(=O)c1c(F)cc(N2CCC(NC3CC3)CC2)c2cn(C)nc12 [Compound 421, 4-[4-(cyclopropylamino)-1-piperidyl]-6-fluoro-N-(5-methoxypyridazin-4-yl)-2-methyl-indazole-7-carbox-amide]",1000 to 10000,> 10000,> 10000,> 10000,> 10000,> 10000,> 10000
"Cn1cc2cc(NC(=O)c3c(F)cc(N4CCC(NC5CC5)CC4)c4cn(C)nc34)c(F)cc2n1 [Compound 422, 4-[4-(cyclopropylamino)-1-piperidy1]-6-fluoro-N-(6-fluoro-2-methyl-indazol-5-yl)-2-methyl-indazole-7-carboxamide]",100 to 1000,< 100,100 to 1000,< 100,100 to 1000,< 100,100 to 1000
"COc1cc(NC(=O)c2c(F)cc(N3CCC(NC4CC4)CC3)c3cn(C)nc23)cc2cn(C)nc12 [Compound 423, 4-[4-(cyclopropylamino)-1-piperidyl]-6-fluoro-N-(7-methoxy-2-methyl-indazol-5-yl)-2-methyl-indazole-7-carboxamide]",1000 to 10000,100 to 1000,1000 to 10000,100 to 1000,1000 to 10000,100 to 1000,1000 to 10000
"CC(=O)NCc1cn2cc(NC(=O)c3c(F)cc(N4CCC(NC5CC5)CC4)c4cn(C)nc34)nc2c(C)n1 [Compound 424, N-[6-(acetamidomethyl)-8-methyl-imidazo [1,2-a]pyrazin-2-yl]-4-[4-(cyclopropylamino)-1-piperidyl]-6-fluoro-2-methyl-indazole-7-carboxamide]",> 10000,> 10000,> 10000,> 10000,> 10000,> 10000,> 10000
"COc1c(NC(=O)c2c(F)cc(N3CCC(NC4CC4)CC3)c3cn(C)nc23)cc2cn(C)nc2c1C [Compound 425, 4-[4-(cyclopropylamino)-1-piperidy1]-6-fluoro-N-(6-methoxy-2,7-dimethyl-indazol-5-y1)-2-methyl-indazole-7-carboxamide]",100 to 1000,100 to 1000,1000 to 10000,100 to 1000,1000 to 10000,100 to 1000,1000 to 10000
"Cn1cc2c(N3CCC(NC4CC4)CC3)cc(F)c(C(=O)Nc3cc4cn(C)nc4n(C)c3=O)c2n1 [Compound 426, 4-[4-(cyclopropylamino)-1-piperidy1]-N-(2,7-dimethyl-6-oxo-pyrazolo[3,4-b]pyridin-5-y1)-6-fluoro-2-methyl-indazole-7-carboxamide]",1000 to 10000,100 to 1000,1000 to 10000,100 to 1000,1000 to 10000,100 to 1000,1000 to 10000
"COc1cc2nn(C)cc2cc1NC(=O)c1c(F)cc(N2[C@@H]3CC[C@H]2C[C@@H](NC2CC2)C3)c2cn(C)nc12 [Compound 428, 4-[(1R,5S)-3-(cyclo-propyl-amino)-8-azabicyclo [3.2.1]octan-8-yl]-6-fluoro-N-(6-methoxy-2-methyl-indazol-5-yl)-2-methyl-indazole-7-carboxamide]",1000 to 10000,1000 to 10000,> 10000,1000 to 10000,> 10000,1000 to 10000,> 10000
"COc1cc2nn(C)cc2cc1NC(=O)c1c(F)cc(N2[C@@H]3CC[C@H]2C[C@H](NC2CC2)C3)c2cn(C)nc12 [Compound 429, 4-[(1S,5R)-3-(cyclopropyl-amino)-8-azabicyclo-[3.2.1]octan-8-yl]-6-fluoro-N-(6-methoxy-2-methyl-indazol-5-yl)-2-methyl-indazole-7-carboxamide]",1000 to 10000,1000 to 10000,1000 to 10000,1000 to 10000,1000 to 10000,1000 to 10000,> 10000

# Continued, in another order:
GI50 [1] [nM],IC50 (MYB mRNA [2]) [nM],IC50 (HTT mRNA [3]) [nM],IC50 (MYB mRNA [4]) [nM],IC50 (HTT mRNA [5]) [nM],SMILES,AC50 (MYB mRNA [4]) [nM],AC50 (HTT mRNA [5]) [nM]
> 10000,> 10000,> 10000,> 10000,> 10000,"Cc1cn2cc(NC(=O)c3c(F)cc(N4CCC(NC5CC5)CC4)c4cn(C)nc34)nc(-n3ccccc3=O)c2n1 [Compound 427, 4-[4-(cyclopropylamino)-1-piperidyl]-6-fluoro-2-methyl-N-[2-methyl-8-(2-oxo-1-pyridyl)-imidazo[1,2-a]-pyrazin-6-yl]-indazole-7-carboxamide]",1000 to 10000,> 10000
100 to 1000,< 100,100 to 1000,< 100,100 to 1000,"COc1nc2nn(C)cc2cc1NC(=O)c1c(F)cc(N2CCC(NC3CC3)CC2)c2cn(C)nc12 [Compound 431, 4-[4-(cyclopropylamino)-1-piperidyl]-6-fluoro-N-(6-methoxy-2-methyl-pyrazolo-[3,4-b]pyridin-5-yl)-2-methyl-indazole-7-carboxamide]",< 100,100 to 1000
< 100,< 100,100 to 1000,< 100,100 to 1000,"COc1cn2nc(C)cc2cc1NC(=O)c1c(F)cc(N2CCC(NC3CC3)CC2)c2cn(C)nc12 [Compound 432, 4-[4-(cyclopropylamino)-1-piperidyl]-6-fluoro-N-(6-methoxy-2-methyl-pyrazolo[1,5-a]pyridin-5-yl)-2-methyl-indazole-7-carboxamide]",< 100,100 to 1000
< 100,< 100,100 to 1000,< 100,100 to 1000,"COc1c(NC(=O)c2c(F)cc(N3CCC(NC4CC4)CC3)c3cn(C)nc23)cc2cn(C)nc2c1Cl [Compound 433, N-(7-chloro-6-methoxy-2-methyl-indazol-5-yl)-4-[4-(cyclopropylamino)-1-piperidyl]-6-fluoro-2-methyl-indazole-7-carboxamide]",< 100,100 to 1000
1000 to 10000,< 100,100 to 1000,< 100,100 to 1000,"COc1cc2nn(C)cc2cc1NC(=O)c1cnc(N2CCC(NC3CC3)CC2)c2cn(C)nc12 [Compound 434, 4-[4-(cyclopropylamino)-1-piperidyl]-N-(6-methoxy-2-methyl-indazol-5-yl)-2-methyl-pyrazolo[4,3-c]pyridine-7-carboxamide]",< 100,100 to 1000
1000 to 10000,> 10000,> 10000,> 10000,> 10000,"CNc1cc(N2CCC(NC3CC3)CC2)c2cn(C)nc2c1C(=O)Nc1cc2cn(C)nc2cc1OC [Compound 435, 2,2,2-trifluoroacetate]",> 10000,> 10000
1000 to 10000,100 to 1000,> 10000,100 to 1000,> 10000,"COc1cc2nn(C)cc2cc1NC(=O)c1c(Cl)cc(N2CCC(NC3CC3)CC2)c2cn(C)nc12 [Compound 436, 6-chloro-4-[4-(cyclopropylamino)-1-piperidyl]-N-(6-methoxy-2-methyl-indazol-5-yl)-2-methyl-indazole-7-carboxamide]",100 to 1000,> 10000
